Source: patent US6737383B1, “Herbicidal oxadiazolidines” (priority 1999, dated 2004)

Tests used:
[1] = test system: cocklebur; experiment: Test B pre/postemergence cocklebur; type: in vivo, Xanthium strumarium
Procedure, shortened: (§1)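 Herbicidal effect was estimated by eye on a ten-point control scale after plants spent twelve to sixteen days in a greenhouse following soil or foliar treatment. Foliar sprays targeted plants at one to four leaves; all doses were formulated in a non-phytotoxic solvent with surfactant.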

[2] = test system: wheat; experiment: Test B pre/postemergence wheat; type: in vivo, Triticum aestivum
Procedure, shortened: as §1

[3] = test system: soybean; experiment: Test B pre/postemergence soybean; type: in vivo, Glycine max
Procedure, shortened: as §1

[4] = test system: corn; experiment: Test B pre/postemergence corn; type: in vivo, Zea mays; conditions: for Corn plant response rating: Postemergence; for Plant response rating, Corn: Preemergence
Procedure, shortened: as §1

[5] = test system: bamyardgrass; experiment: Test B flood test barnyardgrass; type: in vivo, Echinochloa crus-galli
Procedure, shortened: (§2)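 Flood test on plants grown to the 2-leaf stage; treated plants kept in greenhouse twelve to sixteen days, then visually rated against controls on a 0 (no effect) to 10 (complete control) scale.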

[6] = test system: rice; experiment: Test B flood test rice; type: in vivo, Oryza sativa
Procedure, shortened: as §2

[7] = test system: wild oat; experiment: Test B pre/postemergence wild oat; type: in vivo, Avena fatua
Procedure, shortened: as §1

[8] = test system: pigweed; experiment: Test B pre/postemergence pigweed; type: in vivo, Amaranthus retroflexus
Procedure, shortened: as §1

[9] = test system: blackgrass; experiment: Test B pre/postemergence blackgrass; type: in vivo, Alopecurus myosuroides
Procedure, shortened: as §1

[10] = test system: smallflower flatsedge; experiment: Test B flood test smallflower flatsedge; type: in vivo, Cyperus difformis
Procedure, shortened: as §2

[11] = test system: bedstraw; experiment: Test B pre/postemergence bedstraw; type: in vivo, Galium aparine
Procedure, shortened: as §1

[12] = test system: surinam grass; experiment: Test B pre/postemergence surinam grass; type: in vivo, Brachiaria decumbens
Procedure, shortened: as §1

[13] = test system: crabgrass; experiment: Test B pre/postemergence crabgrass; type: in vivo, Digitaria sanguinalis
Procedure, shortened: as §1

[14] = test system: giant foxtail; experiment: Test B pre/postemergence giant foxtail; type: in vivo, Setaria faberii
Procedure, shortened: as §1

[15] = test system: morningglory; experiment: Test B pre/postemergence morningglory; type: in vivo, Ipomoea hederacea; conditions: for Morningglory plant response rating: Postemergence; for Plant response rating, Morningglory: Preemergence
Procedure, shortened: as §1

[16] = test system: velvetleaf; experiment: Test B pre/postemergence velvetleaf; type: in vivo, Abutilon theophrasti
Procedure, shortened: as §1

[17] = Postemergence, Rate 62 g/ha, scale 0 to 10, 0 is no effect, 10 is complete control
[18] = Postemergence, Rate 250 g/ha, scale 0 to 10, 0 no effect, 10 complete control
[19] = Preemergence, Rate 62 g/ha, scale 0 to 10, 0 is no effect, 10 is complete control
[20] = Preemergence, Rate 125 g/ha, scale 0 to 10 (0 no effect, 10 complete control)
[21] = Preemergence, Rate 250 g/ha, scale of 0 to 10 where 0 is no effect and 10 is complete control
[22] = Preemergence, Rate 500 g/ha, scale 0 (no effect) to 10 (complete control)
[23] = Rate 125 g/ha, Postemergence, scale 0 to 10, 0 no effect, 10 complete control
[24] = Rate 500 g/ha, Postemergence, scale 0 to 10, 0 no effect, 10 complete control
[25] = Rate 62 g/ha, scale 0 to 10, 0 is no effect, 10 is complete control
[26] = Rate 250 g/ha, scale 0 to 10, 0 no effect, 10 complete control
[27] = Rate 125 g/ha, scale 0 to 10 (0 no effect, 10 complete control)
[28] = Rate 250 g/ha, scale of 0 to 10 where 0 is no effect and 10 is complete control
[29] = Rate 125 g/ha, scale 0 to 10, 0 no effect, 10 complete control
[30] = Rate 500 g/ha, scale 0 to 10, 0 no effect, 10 complete control
[31] = Rate 125 g/ha, Postemergence section (flood test species), scale 0 to 10, 0 no effect, 10 complete control
[32] = Rate 500 g/ha, listed under Postemergence (flood test species), scale 0 to 10, 0 no effect, 10 complete control
[33] = flood test, listed under Postemergence, Rate 250 g/ha, scale 0 to 10, 0 no effect, 10 complete control

Cc1cccc(Cl)c1-n1c(=O)on(C(=O)N(c2ccc(Cl)cc2)C(C)C)c1=O [Compound 54]
8: Crabgrass plant response rating [13, 22]
0: Cocklebur plant response rating [1, 17] | Cocklebur plant response rating [1, 18] | Plant response rating, Cocklebur [1, 19] | Plant response rating, Cocklebur [1, 20] | Plant response rating, Cocklebur [1, 21] | Cocklebur plant response rating [1, 23] | Wheat plant response rating [2, 17] | Wheat plant response rating [2, 18] | Plant response rating, Wheat [2, 19] | Plant response rating, Wheat [2, 20] | Plant response rating, Wheat [2, 21] | Wheat plant response rating [2, 22] | Wheat plant response rating [2, 23] | Wheat plant response rating [2, 24] | Soybean plant response rating [3, 17] | Soybean plant response rating [3, 18] | Plant response rating, Soybean [3, 19] | Plant response rating, Soybean [3, 20] | Plant response rating, Soybean [3, 21] | Soybean plant response rating [3, 22] | Soybean plant response rating [3, 23] | Soybean plant response rating [3, 24] | Corn plant response rating [4, 25] | Corn plant response rating [4, 26] | Plant response rating, Corn [4, 25] | Plant response rating, Corn [4, 27] | Plant response rating, Corn [4, 28] | Corn plant response rating [4, 29] | Corn plant response rating [4, 30] | Barnyardgrass plant response rating [5, 17] | Barnyardgrass plant response rating [5, 31] | Barnyardgrass plant response rating [5, 32] | Barnyardgrass plant response rating [5, 33] | Rice plant response rating [6, 17] | Rice plant response rating [6, 31] | Rice plant response rating [6, 32] | Rice plant response rating [6, 33] | Wild oats plant response rating [7, 17] | Wild oats plant response rating [7, 18] | Plant response rating, Wild oats [7, 20] | Plant response rating, Wild oats [7, 21] | Wild oats plant response rating [7, 22] | Wild oats plant response rating [7, 23] | Wild oats plant response rating [7, 24] | Redroot pigweed plant response rating [8, 17] | Plant response rating, Redroot pigweed [8, 19] | Plant response rating, Redroot pigweed [8, 20] | Plant response rating, Redroot pigweed [8, 21] | Redroot pigweed plant response rating [8, 22] | Redroot pigweed plant response rating [8, 23] | Blackgrass plant response rating [9, 17] | Blackgrass plant response rating [9, 18] | Plant response rating, Blackgrass [9, 19] | Plant response rating, Blackgrass [9, 20] | Plant response rating, Blackgrass [9, 21] | Blackgrass plant response rating [9, 23] | S. Flatsedge plant response rating [10, 17] | S. Flatsedge plant response rating [10, 31] | S. Flatsedge plant response rating [10, 32] | S. Flatsedge plant response rating [10, 33] | Bedstraw plant response rating [11, 17] | Plant response rating, Bedstraw [11, 19] | Plant response rating, Bedstraw [11, 20] | Plant response rating, Bedstraw [11, 21] | Bedstraw plant response rating [11, 23] | B. signalgrass plant response rating [12, 17] | B. signalgrass plant response rating [12, 18] | Plant response rating, B. signalgrass [12, 19] | Plant response rating, B. signalgrass [12, 20] | Plant response rating, B. signalgrass [12, 21] | B. signalgrass plant response rating [12, 23] | B. signalgrass plant response rating ([12]; Rate 500 g/ha, Postemergence, scale of 0 to 10 where 0 is no effect and 10 is complete control) | Crabgrass plant response rating [13, 17] | Crabgrass plant response rating [13, 23] | Morningglory plant response rating [15, 25] | Plant response rating, Morningglory [15, 25] | Plant response rating, Morningglory [15, 27] | Plant response rating, Morningglory [15, 28] | Morningglory plant response rating [15, 29] | Velvetleaf plant response rating [16, 17] | Velvetleaf plant response rating [16, 18] | Plant response rating, Velvetleaf [16, 19] | Plant response rating, Velvetleaf [16, 20] | Plant response rating, Velvetleaf [16, 21] | Velvetleaf plant response rating [16, 22] | Velvetleaf plant response rating [16, 23] | Velvetleaf plant response rating [16, 24]
— 0 0 0 0: Cocklebur plant response rating [1, 22]
5: Crabgrass plant response rating [13, 24] | Giant foxtail plant response rating [14, 24]
7: Bedstraw plant response rating [11, 24] | Giant foxtail plant response rating [14, 22]
2: Cocklebur plant response rating [1, 24] | Redroot pigweed plant response rating [8, 18] | Blackgrass plant response rating [9, 22] | Blackgrass plant response rating [9, 24] | B. signalgrass plant response rating [12, 22] | Crabgrass plant response rating [13, 18] | Plant response rating, Crabgrass [13, 19] | Plant response rating, Crabgrass [13, 20] | Plant response rating, Giant foxtail [14, 19] | Morningglory plant response rating [15, 26] | Morningglory plant response rating [15, 30]
4: Redroot pigweed plant response rating [8, 24] | Bedstraw plant response rating [11, 18]
3: Plant response rating, Crabgrass [13, 21] | Giant foxtail plant response rating [14, 17] | Giant foxtail plant response rating [14, 18] | Plant response rating, Giant foxtail [14, 20] | Plant response rating, Giant foxtail [14, 21] | Giant foxtail plant response rating [14, 23]
— — 0 0 0: Bedstraw plant response rating [11, 22]
